Molecular target: hERG potassium channel (Homo sapiens, UniProt Q12809)
Test: in vitro
Settings: human
Description: CHO-hERG cells (from Shanghai Institute of Materia Medica, Chinese Academy of Sciences) were cultured in a 175 cm^2 culture flask. When the cell density reached 60% to 80%, the culture medium was removed, the cells were washed once with 7 mL of PBS, and then 3 mL of Detachin was added for cell detachment. After complete cell detachment, 7 mL of culture medium were added for neutralization, the mixture was then centrifuged, the supernatant was aspirated, and another 5 mL of culture medium was added for re-suspension, so as to ensure that the cell density was 2×10^6/mL to 5×10^6/mL.
The single-cell giga-seal and the formation of whole-cell mode were both completed automatically by a Q patch instrument. After a whole-cell recording mode was achieved, the cells were clamped at −80 mV, exposed to a front voltage of −50 mV for 50 ms prior to a depolarizing stimulus (5 s, +40 mV), and then repolarized to −50 mV for 5 s, followed by a recovery to −80 mV. This voltage stimulation was applied every 15 s and recorded for 2 minutes, and the extracellular fluid was then administered, followed by a record lasting for 5 minutes. Thereafter, the administration process was started. Starting from the lowest test concentration, the compounds were administered at each test concentration and the process lasted for 2.5 minutes. […] At least 3 cells (n≥3) were tested at each concentration.
20 mM stock solution of the compound was diluted with the extracellular fluid, and 5 μL of the 20 mM stock solution of the compound was taken, added to 2495 μL of the extracellular fluid, and diluted by 500 times to 40 μM. Thereafter, the resulting mixture was serially and successively diluted by 3 times in an extracellular fluid containing 0.2% DMSO, so as to obtain a final concentration to be tested.
The experimental data was analyzed by XLFit software.

Chain of hERG potassium channel (Q12809 whole entry): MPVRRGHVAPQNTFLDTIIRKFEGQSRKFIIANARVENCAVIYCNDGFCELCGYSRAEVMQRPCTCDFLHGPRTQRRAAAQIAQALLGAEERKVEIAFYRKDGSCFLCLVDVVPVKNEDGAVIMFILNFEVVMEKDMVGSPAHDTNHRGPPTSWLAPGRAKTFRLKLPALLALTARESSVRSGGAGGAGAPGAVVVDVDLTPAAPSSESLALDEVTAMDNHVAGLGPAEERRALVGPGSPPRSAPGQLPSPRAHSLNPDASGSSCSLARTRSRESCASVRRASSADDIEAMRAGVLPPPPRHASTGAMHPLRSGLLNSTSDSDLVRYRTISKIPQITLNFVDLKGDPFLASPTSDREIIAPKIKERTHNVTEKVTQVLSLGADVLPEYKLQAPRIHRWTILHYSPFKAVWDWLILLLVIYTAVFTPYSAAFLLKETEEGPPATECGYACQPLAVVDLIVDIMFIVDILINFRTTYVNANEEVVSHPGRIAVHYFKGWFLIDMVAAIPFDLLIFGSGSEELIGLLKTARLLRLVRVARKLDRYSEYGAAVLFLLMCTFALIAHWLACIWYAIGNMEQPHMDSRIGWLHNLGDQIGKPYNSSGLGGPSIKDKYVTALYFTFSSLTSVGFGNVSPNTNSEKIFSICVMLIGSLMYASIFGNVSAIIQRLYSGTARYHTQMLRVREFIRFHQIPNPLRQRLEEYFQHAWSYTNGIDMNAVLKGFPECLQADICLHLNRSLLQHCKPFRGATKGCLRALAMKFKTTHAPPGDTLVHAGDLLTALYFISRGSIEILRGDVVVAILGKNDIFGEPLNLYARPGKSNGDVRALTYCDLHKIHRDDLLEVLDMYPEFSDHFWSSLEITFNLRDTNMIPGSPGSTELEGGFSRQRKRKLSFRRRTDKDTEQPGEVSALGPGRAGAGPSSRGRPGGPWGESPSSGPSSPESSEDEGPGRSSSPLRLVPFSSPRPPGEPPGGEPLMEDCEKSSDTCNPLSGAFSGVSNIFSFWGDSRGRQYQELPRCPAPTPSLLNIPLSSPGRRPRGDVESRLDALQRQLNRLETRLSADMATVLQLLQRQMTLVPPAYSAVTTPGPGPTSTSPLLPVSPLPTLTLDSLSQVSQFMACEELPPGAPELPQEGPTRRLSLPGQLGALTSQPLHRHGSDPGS

Question: `COc1cc(N)c(Cl)cc1C(=O)NC1CCN(CCCOc2ccc(F)cc2)CC1OC` (stereo not shown) [Cisapride, reference compound] was tested. Which inhibition at 2.5 min, 40 μM did it give?
Answer: Its inhibition at 2.5 min, 40 μM is 89.6%.

Source: US11466024B2, “Bicylic compound acting as an inhibitor” (CHIA TAI TIANQING PHARMACEUTICAL GROUP CO., LTD., priority 2017, dated 2022)
